{"source": "patent US20240343699A1", "about": "“DERIVATIVES OF SUBSTITUTED MORPHOLINES AND USES THEREOF” (Supernus Pharmaceuticals, Inc., priority 2023, published 2024)", "key": {"[1]": {"conditions": "80 mg/kg PO; for Tlast: COMPOUND C (parent) in plasma"}, "[2]": {"test": "Cellular and nuclear receptor functional assays", "format": "cell-based", "conditions": "human recombinant (CHO cells)", "procedure": "A study was conducted to test 5 compounds in cellular and nuclear receptor functional and enzyme and uptake assays.\nThe results are expressed as a percent of control agonist response or inverse agonist response and as a percent inhibition of control agonist response\nThe EC50 values (concentration producing a half-maximal response) and IC50 values (concentration causing a half-maximal inhibition of the control agonist response) were determined by non-linear regression analysis of the concentration-response curves generated with mean replicate values using Hill equation curve fitting […]\nwhere Y=response, A=left asymptote of the curve, D=right asymptote of the curve, C=compound concentration, and C50=EC50 or IC50, and nH=slope factor. This analysis was performed using software developed at Cerep (Hill software) and validated by comparison with data generated by the commercial software SigmaPlot® 4.0 for Windows® (© 1997 by SPSS Inc.).\nFor the antagonists, the apparent dissociation constants (KB) were calculated using the modified Cheng Prusoff equation where A=concentration of reference agonist in the assay, and EC50A=EC50 value of the reference agonist.\nIn Vitro Pharmacology. Results showing an inhibition (or stimulation for assays run in basal conditions) higher than 50% were considered to represent significant effects of the test compounds. Results showing an inhibition (or stimulation) between 25% and 50% are indicative of weak to moderate effects. Results showing an inhibition (or stimulation) lower than 25% were not considered significant and mostly attributable to variability of the signal around the control level."}, "[3]": {"test": "Metabolic stability in human liver S9", "format": "in vitro ADME", "conditions": "human liver S9, 1 μM", "procedure": "(§1) Incubation Buffer (PBK): 50 mM potassium phosphate buffer was prepared from 1 M potassium phosphate buffer, pH 7.2. […] The dilution of […] was prepared by 90% methanol/10% DMSO, then 10 μM working solutions were prepared by diluting the 0.1 mM intermediates with 50 mM PBK. […] Prior to use, the stock solutions were brought to room temperature and thoroughly mixed. […] Cofactors Solutions: the mixture of cofactors solution was made at 10 mM of NADPH and 10 mM of UDPGA in PBK buffer.\n(§2) The incubation was carried out in 96-well plates. The liver S9 working solutions were added to 96-well plates (80 μL/well) in duplicate. […] Reaction was initiated by adding cofactor mixture 10 μL/well. The plates were incubated at 37° C. in a water bath with shaking. […] The final organic solvent content in the incubation was ≤1%.\n(§3) At specified time points, i.e., 5, 10, 20, 30 and 60 minutes, NCF60 (without adding NADPH (Nicotinamide-adenine dinucleotide phosphate, reduced form) and UDPGA (Uridine 5′-diphosphoglucuronic acid trisodium salt) replaced with PBK buffer reaction was stopped by adding three volumes of stop solution. The time zero (To) samples were prepared by adding three volumes of stop solution to liver S9 samples, followed by addition of test article or control, and cofactor mixture solution 10 μL/well.\n(§4) Subsequently, 100 μL of supernatant.\n(§5) Positive controls: 7-ethoxycoumarin and 7-hydroxycoumarin."}, "hNav1.5": {"molecular_target": "T1, hNav1.5 (Homo sapiens, UniProt Q14524)", "T1 construct": "CYL6004QP2DR", "T1 sequence (Q14524 whole entry)": "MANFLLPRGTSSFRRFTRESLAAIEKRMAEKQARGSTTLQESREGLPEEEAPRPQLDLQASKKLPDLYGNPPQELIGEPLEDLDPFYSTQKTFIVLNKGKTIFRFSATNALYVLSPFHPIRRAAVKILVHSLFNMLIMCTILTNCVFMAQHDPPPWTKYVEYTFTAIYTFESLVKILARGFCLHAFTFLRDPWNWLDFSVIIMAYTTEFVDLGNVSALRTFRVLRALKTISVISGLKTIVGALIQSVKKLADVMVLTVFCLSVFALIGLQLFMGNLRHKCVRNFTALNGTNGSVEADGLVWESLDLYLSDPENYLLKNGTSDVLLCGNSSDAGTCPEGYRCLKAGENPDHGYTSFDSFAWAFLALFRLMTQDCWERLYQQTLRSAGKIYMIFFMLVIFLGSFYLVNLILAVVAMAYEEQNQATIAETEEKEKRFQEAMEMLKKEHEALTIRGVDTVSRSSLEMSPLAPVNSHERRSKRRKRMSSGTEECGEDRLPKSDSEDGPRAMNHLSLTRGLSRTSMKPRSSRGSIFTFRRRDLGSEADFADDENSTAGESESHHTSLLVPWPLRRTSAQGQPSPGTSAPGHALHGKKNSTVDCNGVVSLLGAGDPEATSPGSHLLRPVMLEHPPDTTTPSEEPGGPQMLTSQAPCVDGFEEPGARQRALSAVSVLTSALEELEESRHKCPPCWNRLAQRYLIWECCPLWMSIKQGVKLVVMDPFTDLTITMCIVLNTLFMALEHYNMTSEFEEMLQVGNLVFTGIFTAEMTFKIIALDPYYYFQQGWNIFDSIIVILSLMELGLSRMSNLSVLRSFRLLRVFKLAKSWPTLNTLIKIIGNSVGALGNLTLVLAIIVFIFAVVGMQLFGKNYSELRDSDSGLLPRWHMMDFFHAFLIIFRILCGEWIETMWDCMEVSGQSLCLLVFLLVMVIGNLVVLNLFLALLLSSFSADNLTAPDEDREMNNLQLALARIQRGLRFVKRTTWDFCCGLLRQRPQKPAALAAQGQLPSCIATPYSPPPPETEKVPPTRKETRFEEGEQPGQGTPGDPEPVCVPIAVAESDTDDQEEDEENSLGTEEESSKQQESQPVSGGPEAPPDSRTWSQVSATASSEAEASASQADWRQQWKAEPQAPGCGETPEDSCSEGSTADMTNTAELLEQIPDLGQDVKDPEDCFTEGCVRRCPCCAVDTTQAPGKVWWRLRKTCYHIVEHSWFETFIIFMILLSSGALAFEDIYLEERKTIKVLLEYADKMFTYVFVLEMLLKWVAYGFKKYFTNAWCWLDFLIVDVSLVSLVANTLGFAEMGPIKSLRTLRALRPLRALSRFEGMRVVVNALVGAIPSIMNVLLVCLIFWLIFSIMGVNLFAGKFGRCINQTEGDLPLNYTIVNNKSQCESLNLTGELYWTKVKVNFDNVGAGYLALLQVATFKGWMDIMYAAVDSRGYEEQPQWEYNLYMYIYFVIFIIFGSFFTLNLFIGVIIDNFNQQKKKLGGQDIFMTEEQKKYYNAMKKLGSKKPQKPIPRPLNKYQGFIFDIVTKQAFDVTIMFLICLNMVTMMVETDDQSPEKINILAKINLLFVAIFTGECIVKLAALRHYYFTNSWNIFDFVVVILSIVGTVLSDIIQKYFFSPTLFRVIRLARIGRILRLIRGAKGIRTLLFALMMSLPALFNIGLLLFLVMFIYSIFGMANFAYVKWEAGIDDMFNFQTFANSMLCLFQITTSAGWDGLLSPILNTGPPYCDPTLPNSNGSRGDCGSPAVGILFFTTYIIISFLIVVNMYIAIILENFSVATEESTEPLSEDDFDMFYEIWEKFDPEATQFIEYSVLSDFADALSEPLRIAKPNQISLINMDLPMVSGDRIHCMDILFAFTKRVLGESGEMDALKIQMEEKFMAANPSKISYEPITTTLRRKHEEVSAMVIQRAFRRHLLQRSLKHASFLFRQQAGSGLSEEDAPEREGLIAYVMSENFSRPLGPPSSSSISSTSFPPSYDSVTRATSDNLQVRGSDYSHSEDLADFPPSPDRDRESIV", "test": "Nav1.5 human sodium ion channel cell based automated patch clamp assay (QPatch HT)", "conditions": "Antagonist", "procedure": "Electrophysiological assays were conducted to profile five compounds for activities on the ion channel target using the QPatch HT electrophysiological platform.\nCYL6004QP2DR Nav1.5 Human Sodium Ion Channel Cell Based Automated Patch Clamp Assay. Cells were held at −120 mV for 100 ms, stepped to −130 mV for 100 ms, and stepped back to −120 mV for 100 ms to measure the leak current. Na channels exist in a) resting or closed state at −120 mV, b) a transient open state that inactivates to c) inactivated state at −10 mV. Na current inhibition within 1-2 ms of channel opening at −10 mV is open channel inhibition (pulse 1). […] Pulse 1 and 2 are used to investigate drug binding to the open state and inactivated state of the Na channels, respectively. Each concentration of compound was applied for 5 minutes.\nCurrent amplitudes more than 200 pA at the control stage were analyzed. The amplitude of the current was calculated by measuring the difference between the peak inward current on stepping to −10 mV (i.e. peak of the current) and remaining current at the end of the step. The current was assessed in vehicle control conditions and then at the end of each five (5) minute compound application."}, "[4]": {"test": "Metabolic stability in dog liver S9", "format": "in vitro ADME, Beagle dog", "conditions": "dog liver S9, 1 μM", "procedure": "as §1, §2, §3, §4, §5"}, "[5]": {"test": "Metabolic stability in rat liver S9", "format": "in vitro ADME, Sprague Dawley rat", "design": "half-life: dose or concentration left out as unconfirmed", "procedure": "as §1, §2, §3, §4, §5"}, "[6]": {"test": "Protein binding in CD-1 mouse plasma (equilibrium dialysis)", "conditions": "dialysis conditions; no binding reported"}, "[7]": {"conditions": "rat liver S9, 1 μM, NCF60 (no cofactors, 60 min)"}}, "note": "Values joined by “and” are separate entries in the source; they are usually repeats but may differ in a detail not shown here. Identical values can stand only once. Like-named read-outs stand apart in the source and are kept apart here.", "data": [{"molecule": "CCOc1ccccc1OC[C@@H]1CN(C(=O)OC(OC(=O)[C@H](N)C(C)C)C(C)C)CCO1", "note": "(stereo partly shown) [COMPOUND C]", "values": [{"measurement": "Clinical observation (tolerability)", "setting": "[1]; beagle dogs", "result": "well tolerated"}, {"measurement": "plasma concentration of the analog itself", "setting": "[1]; LLOQ 3.0 ng/mL", "result": "well above LLOQ"}, {"measurement": "Tlast", "setting": "[1]; female beagle dogs", "result": 16.0, "unit": "h"}, {"measurement": "Tlast", "setting": "[1]; male beagle dogs", "result": 16.0, "unit": "h"}, {"measurement": "Kb", "setting": "[2]; apparent dissociation constant, modified Cheng Prusoff equation, read-out: kB, 5-HT2B(h) (antagonist effect)", "result": 2, "unit": "µM"}, {"measurement": "IC50", "setting": "[2]; serotonin (30 nM), IP1, HTRF, read-out: IC50, 5-HT2B(h) (antagonist effect)", "result": 13, "unit": "µM"}, {"measurement": "% Remaining", "setting": "[3]; 0 min", "result": 100, "unit": "%"}, {"measurement": "Analyte Peak area/IS Peak area Mean × 100 (n = 2)", "setting": "[3]; 0 min", "result": 10.6}, {"measurement": "% Remaining", "setting": "[3]; 5 min", "result": 7.7, "unit": "%"}, {"measurement": "Analyte Peak area/IS Peak area Mean × 100 (n = 2)", "setting": "[3]; 5 min", "result": 0.808}, {"measurement": "% Remaining", "setting": "[3]; 10 min", "result": 4.2, "unit": "%"}, {"measurement": "Analyte Peak area/IS Peak area Mean × 100 (n = 2)", "setting": "[3]; 10 min", "result": 0.446}, {"measurement": "% Remaining", "setting": "[3]; 20 min", "result": 2.8, "unit": "%"}, {"measurement": "Analyte Peak area/IS Peak area Mean × 100 (n = 2)", "setting": "[3]; 20 min", "result": 0.297}, {"measurement": "% Remaining", "setting": "[3]; 30 min", "result": 1.5, "unit": "%"}, {"measurement": "Analyte Peak area/IS Peak area Mean × 100 (n = 2)", "setting": "[3]; 30 min", "result": 0.160}, {"measurement": "% Remaining", "setting": "[3]; 60 min", "result": "0.19% and 0.2%"}, {"measurement": "Analyte Peak area/IS Peak area Mean × 100 (n = 2)", "setting": "[3]; 60 min", "result": 0.020}, {"measurement": "% Remaining", "setting": "[3]; NCF60 (no cofactors, 60 min)", "result": 0.6, "unit": "%"}, {"measurement": "Analyte Peak area/IS Peak area Mean × 100 (n = 2)", "setting": "[3]; NCF60 (no cofactors, 60 min)", "result": 0.061}, {"measurement": "half-life at 1 μM", "setting": "[3]; pH 7.2", "result": 8.12, "unit": "min"}, {"measurement": "microsomal CLint at 1 μM", "setting": "[3]; pH 7.2, read-out: CLint(LS9)", "result": 171, "unit": "µL/min/mg"}, {"measurement": "IC50", "setting": "hNav1.5; Pulse 1 (open state), read-out: Estimated IC50 (Pulse 1)", "result": "> 100", "unit": "µM"}, {"measurement": "IC50", "setting": "hNav1.5; Pulse 2 (inactivated state), read-out: Estimated IC50 (Pulse 2)", "result": 8.5, "unit": "µM"}, {"measurement": "half-life at 1 μM", "setting": "[4]; Beagle, pH 7.2", "result": 12, "unit": "min"}, {"measurement": "microsomal CLint at 1 μM", "setting": "[4]; Beagle, pH 7.2, read-out: CLint(LS9)", "result": 115, "unit": "µL/min/mg"}, {"measurement": "% Remaining", "setting": "[4]; 0 min", "result": 100, "unit": "%"}, {"measurement": "Analyte Peak area/IS Peak area Mean × 100 (n = 2)", "setting": "[4]; 0 min", "result": 8.27}, {"measurement": "% Remaining", "setting": "[4]; 5 min", "result": 17, "unit": "%"}, {"measurement": "Analyte Peak area/IS Peak area Mean × 100 (n = 2)", "setting": "[4]; 5 min", "result": 1.44}, {"measurement": "% Remaining", "setting": "[4]; 10 min", "result": 12, "unit": "%"}, {"measurement": "Analyte Peak area/IS Peak area Mean × 100 (n = 2)", "setting": "[4]; 10 min", "result": 0.962}, {"measurement": "% Remaining", "setting": "[4]; 20 min", "result": 8.7, "unit": "%"}, {"measurement": "Analyte Peak area/IS Peak area Mean × 100 (n = 2)", "setting": "[4]; 20 min", "result": 0.720}, {"measurement": "% Remaining", "setting": "[4]; 30 min", "result": 6.1, "unit": "%"}, {"measurement": "Analyte Peak area/IS Peak area Mean × 100 (n = 2)", "setting": "[4]; 30 min", "result": 0.501}, {"measurement": "% Remaining", "setting": "[4]; 60 min", "result": "1.41% and 1.4%"}, {"measurement": "Analyte Peak area/IS Peak area Mean × 100 (n = 2)", "setting": "[4]; 60 min", "result": 0.116}, {"measurement": "% Remaining", "setting": "[4]; NCF60 (no cofactors, 60 min)", "result": 5.1, "unit": "%"}, {"measurement": "Analyte Peak area/IS Peak area Mean × 100 (n = 2)", "setting": "[4]; NCF60 (no cofactors, 60 min)", "result": 0.418}, {"measurement": "half-life", "setting": "[5]; Sprague Dawley (rat), pH 7.2, rat, dog and human liver S9 incubations (summary over species), read-out: half-lives", "result": "4 to 12", "unit": "min"}, {"measurement": "half-life at 1 μM", "setting": "[5]; Sprague Dawley, pH 7.2, rat liver S9, 1 μM", "result": 8.53, "unit": "min"}, {"measurement": "microsomal CLint at 1 μM", "setting": "[5]; Sprague Dawley, pH 7.2, rat liver S9, 1 μM, read-out: CLint(LS9)", "result": 163, "unit": "µL/min/mg"}, {"measurement": "% Remaining", "setting": "[5]; rat liver S9, 1 μM, 0 min", "result": 100, "unit": "%"}, {"measurement": "Analyte Peak area/IS Peak area Mean × 100 (n = 2)", "setting": "[5]; rat liver S9, 1 μM, 0 min", "result": 6.55}, {"measurement": "% Remaining", "setting": "[5]; rat liver S9, 1 μM, 5 min", "result": 19, "unit": "%"}, {"measurement": "Analyte Peak area/IS Peak area Mean × 100 (n = 2)", "setting": "[5]; rat liver S9, 1 μM, 5 min", "result": 1.24}, {"measurement": "% Remaining", "setting": "[5]; rat liver S9, 1 μM, 10 min", "result": 13, "unit": "%"}, {"measurement": "Analyte Peak area/IS Peak area Mean × 100 (n = 2)", "setting": "[5]; rat liver S9, 1 μM, 10 min", "result": 0.834}, {"measurement": "% Remaining", "setting": "[5]; rat liver S9, 1 μM, 20 min", "result": 5.6, "unit": "%"}, {"measurement": "Analyte Peak area/IS Peak area Mean × 100 (n = 2)", "setting": "[5]; rat liver S9, 1 μM, 20 min", "result": 0.365}, {"measurement": "% Remaining", "setting": "[5]; rat liver S9, 1 μM, 30 min", "result": 3.5, "unit": "%"}, {"measurement": "Analyte Peak area/IS Peak area Mean × 100 (n = 2)", "setting": "[5]; rat liver S9, 1 μM, 30 min", "result": 0.228}, {"measurement": "% Remaining", "setting": "[5]; rat liver S9, 1 μM, 60 min", "result": "0.39% and 0.4%"}, {"measurement": "Analyte Peak area/IS Peak area Mean × 100 (n = 2)", "setting": "[5]; rat liver S9, 1 μM, 60 min", "result": 0.026}, {"measurement": "% Remaining", "setting": "[5]; [7]", "result": 3.5, "unit": "%"}, {"measurement": "Analyte Peak area/IS Peak area Mean × 100 (n = 2)", "setting": "[5]; [7]", "result": 0.228}, {"measurement": "stability in the mouse plasma", "setting": "[6]", "result": "instability"}]}]}
